Where two headings read alike, the source gives them in different places.
Key:
MMP-13 = MMP-13 ELISA on supernatants of TNF-α-treated chondrogenic pellets; format: cell-based, human
MMT/MCLT rat model of OA = assay: MMT/MCLT trial 1 weight bearing (daily morphine 10 mg/kg, tacrolimus 0.3 or 0.6 mg/kg, fluocinolone 5 or 10 μg/kg, clonidine 100 μg/kg, alendronate 10 μg/kg i.p.; curcumin, withaferin 50 mg/kg p.o.); format: in vivo
Protocol: (§1) Weight bearing (WB; incapacitance) was measured five times per day, once per week, using a Linton incapacitance meter (Stoelting Co., Wood Dale, IL, USA). Rats were acclimated to the meter before study initiation, and, similarly, immediately before WB, the animals were placed in the meter and allowed to acclimate for 2–5 minutes. Each hind paw was placed on a separate force plate so that the force exerted by each side could be averaged over a 5-second interval, and the mean of three readings was taken for each data point. Right paw force was compared with that on the left side for each group to confirm that animals were displaying incapacitance and/or pain behavior. Differences in force (left minus right) and right paw force as a percentage of the total force exerted by both paws were determined and compared between groups.
Following isoflurane anesthesia, the medial collateral ligament was transected just below its attachment to the meniscus in the right knee. The meniscus was cut at its narrowest point away from the ossicles so as not to damage the tibial surface and to ensure that the anterior and posterior meniscus halves were freely movable. […] In trial 2, drugs were administered IA weekly beginning 1 week following surgery. Three weeks postsurgery, animals were humanely killed and their right knees were collected for histopathology. All studies were conducted in accordance with the International Association for the Study of Pain Guidelines and were approved by the Bolder BioPATH IACUC (Boulder, CO, USA) in compliance with regulations before study initiation (IACUC protocol BBP03-006). Those running the studies were blinded to the treatments. See Additional file 1 for further details.
Isoflurane and the right knee area prepared for surgery. A skin incision was made over the medial aspect of the knee and the medial collateral ligament was exposed by blunt dissection and then transected. The medial meniscus was cut through the full thickness to simulate a complete tear and the skin was then closed with suture.
All pharmaceutical agents were prepared and stored as recommended by the supplier. Daily drug preparations were made fresh from stock solutions. […]
In Trial 2 drugs were […]
administered IA weekly beginning one week following surgery. […]
were delivered by gavage and were prepared in 0.3% Methyl Cellulose.
WB was measured five times a day, once a week, using a Linton incapacitance meter (Stoelting Co.) to assess pain behavior. Rats were acclimated to the incapacitance meter prior to study initiation.
Similarly, immediately prior to WB animals were placed in the incapacitance meter and allowed to acclimate for 2-5 minutes. Each hind paw was placed on a separate force plate so that the force exerted by each side could be averaged over a 5 second interval and the mean of three readings taken for each data point. Right paw force was compared to left for each group to confirm that animals were displaying incapacitance / pain behavior. Difference in force (left minus right) and right paw force as a percentage of the total force exerted by both paws were determined and compared between groups. Three weeks after surgery, animals were humanely euthanized and right knees collected for histopathology evaluation.
Figure 2. MMT/MCLT Trial Timeline […]
MMT/MCLT Dosing (once/day)
The study design and animal usage was approved by Bolder BioPATH’s Institutional Animal Care and Use Committee (IACUC) for compliance with regulations prior to study initiation (IACUC […]
Labs. Animals were identified by a distinct mark at the base of the tail delineating group and animal number. After randomization, all cages were labeled with protocol number, group numbers, and animal numbers with appropriate color-coding (see protocol).

[1] = MIA trial 2 clinical observations; format: in vivo, rat; details: tacrolimus i.p. daily
[2] = rat, in vivo
Protocol: Using the MMT/MCLT model, a number of the same agents were tested via systemic delivery and
using incapacitance /weight bearing as a measure of pain.

MIA rat model of OA [3] = assay: MIA trial 1 weight bearing (daily s.c. clonidine 0.1, fluocinolone 0.002, morphine 6 mg/kg); format: in vivo
Protocol: as §1
Following isoflurane anesthesia, 50 μl (2 mg) of MIA was injected into the synovial space of the left knee. Animals were randomly assigned to groups, and pain behavior was assessed 7, 14, 21, and 28 days following MIA injection and intervention using WB with the Stoelting incapacitance meter (trial 1) or the dRS test (trials 2 and 3). […] Animals received MIA treatment and then saline control or therapeutic. […] Histopathology was performed at each time point and at study termination. All studies were conducted in accordance with the International Association for the Study of Pain Guidelines and were approved by the Algos Therapeutics, Inc. Institutional Animal Care and Use Committee (IACUC) before initiation. Those running the studies were blind to the treatments. See Additional file 1 for further details. […]
dosing were housed three per cage. Animals had free access to food and water and were maintained […]
The animal colony was maintained at approximately 21 °C. All experiments were conducted in accordance with the International Association for the Study of Pain Guidelines.

MIA rat model of OA [4] = assay: MIA trial 1 histopathology; format: in vivo; details: necropsy day 29, n = 3; for Histopathology, cartilage score: 0-5 scale
Protocol: Following functional testing in the first and second MIA trials, femurs were fixed in paraformaldehyde, processed, sectioned, stained with hematoxylin and eosin or Safranin O at Premier Laboratory (Longmont, CO, USA), and analyzed by a veterinary pathologist. For MIA trial 1, sections were evaluated for the percentage area of chondrocyte necrosis and/or proteolytic degeneration using a 5-point scale with 0 = none; 1 being <10 %; 2 = 10–30 %; 3 = 30–60 %; 4 = 60–90 %; and 5 being >90 %. Other characteristics of inflammation, proliferation, and integrity of the synovium, subchondral bone, and articular cartilage were scored as normal, minimal, mild, moderate, marked, or increased or decreased when severity was not graded. MIA trial 2 was measured similarly and then cross-checked according to the methods used for MIA trial 3 (see text below).
The histopathology for the first MIA trial was performed by Premier Laboratories (Dr. Michael Hawes, APS, Pathologist). Treatments were masked during the assessment. Chondrocyte necrosis and proteolytic degeneration of the femurs were scored on a 5 point scale with 0 = None; 1 = <10%; […]
proteoglycan content (safranin O staining), synovial membrane inflammation and proliferation, subchondral bone, and articular cartilage (as indicated in Supplementary methods). Characteristics within these categories were scored as normal, minimal, mild, moderate, marked, or +/- when severity was not graded. […]
Degenerative changes occur by 3-6 weeks post-surgery in the MMT/MCLT model and are of greatest severity on the outer 1/3 of the tibial cartilage. Less severe degenerative changes are observed in the middle and inner 1/3 of the tibial cartilage. Osteophytes progressively increase in size and are ultimately quite large (medial tibia). By 12 months nearly all rats show total cartilage loss. Due to the rapid progression of cartilage degeneration, protective effects of therapeutics are not always apparent in the outer 1/3 of the tibial cartilage, although zonal analysis may reveal effects of treatment in the middle and inner 1/3. Substantial subchondral and epiphyseal bone changes occur in the medial tibia subjacent to the areas of greatest lesion severity. […]
Scores were based on the […]
percentage of area affected within the zone.
Cartilage degeneration in the tibia was scored on a five point scale for each zone, collagen damage across the medial tibial plateau was measured by total width for each grade damage. Cartilage degeneration in the tibia was scored none to severe (numerical values 0-5) for each zone (area defined by micrometer) using the following criteria: […]

Row | SMILES | Concentration inhibiting MMP-13 (MMP-13; > = failed to inhibit up to highest concentration tested) [µM] | Weight bearing, hours with significant effect (MMT/MCLT rat model of OA; day 7, low or only dose) [h] | Weight bearing, hours with significant effect (MMT/MCLT rat model of OA; day 14, tacrolimus 0.6 mg/kg, fluocinolone 0.010 mg/kg) [h] | Weight bearing, hours with significant effect (MMT/MCLT rat model of OA; day 21, low or only dose) [h] | Clinical observation [1] | Clinical observation [2] | Weight bearing, hours with significant effect (MMT/MCLT rat model of OA; day 14, low or only dose) | Weight bearing, hours after dosing with significant difference (MIA rat model of OA [3]; day 21, BL baseline) | Histopathology, bone (MIA rat model of OA [4]) | Histopathology, cartilage score (MIA rat model of OA [4]) | Effective range against MMP-13 (MMP-13) | Weight bearing, hours after dosing with significant difference (MIA rat model of OA [3]; day 14) [h]
1 | C=CC[C@@H]1/C=C(\C)C[C@H](C)C[C@H](OC)[C@H]2O[C@@](O)(C(=O)C(=O)N3CCCC[C@H]3C(=O)O[C@H](/C(C)=C/[C@@H]3CC[C@@H](O)[C@H](OC)C3)[C@H](C)[C@@H](O)CC1=O)[C@H](C)C[C@@H]2OC [Tacrolimus] | 50 | 3 | 1 | 3 | blood in the stool | blood in the stool | – | – | – | – | – | –
2 | CC1=C(CO)C(=O)O[C@@H]([C@@H](C)[C@H]2CC[C@H]3[C@@H]4C[C@H]5O[C@]56[C@@H](O)C=CC(=O)[C@]6(C)[C@H]4CC[C@]23C)C1 [Withaferin A] | – | 1 | – | – | – | – | 3 h | – | – | – | – | –
3 | CC1(C)O[C@@H]2C[C@H]3[C@@H]4C[C@H](F)C5=CC(=O)C=C[C@]5(C)[C@@]4(F)[C@@H](O)C[C@]3(C)[C@]2(C(=O)CO)O1 [Fluocinolone, Fluocinolone Acetonide] | – | 5 | – | 1 | – | – | 1,3 h | BL^b, 1 | Minimal | 3.0 | – | –
4 | Clc1cccc(Cl)c1N=C1NCCN1 [Clonidine] | – | 1 | – | – | – | – | – | 1 h | Severe | 4.7 | Not effective | 1

— publication PMC4721142, “Randomized controlled studies on the efficacy of antiarthritic agents in inhibiting cartilage degeneration and pain associated with progression of osteoarthritis in the rat” (Arthritis Research & Therapy, 2016)
